Counter-ions that a name gives are not always drawn. Like-named read-outs stand apart in the source and are kept apart here.
Key:
[1] = tested on: epithelial carcinoma A431 cell line; experiment: MTT Cell Proliferation Assay, A431 cells; format: cell-based; settings: for MTT Assay IC50(A431/MDBK): ratio in parentheses: ratio MDBK IC50 / A431 IC50 (selectivity)
Method in brief: (§1)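 Each concentration ran in quadruplicate across duplicate plates, with compounds serially diluted in DMSO and delivered at 0.5% DMSO in 0.5% FBS medium for 3 days.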

MDBK line = experiment: MTT Cell Proliferation Assay, MDBK cells; format: cell-based, bovine
Method in brief: as §1

EGFR = molecular target: T1, EGFR (Homo sapiens, UniProt P00533); experiment: EGFR in-cell Western (ICW) screening protocol (EGFR inhibition assay); format: cell-based; set-up: ICW 1 / ICW 2 / ICW Avg: unit not given here; settings: for ICW Avg / ICW 1 / ICW 2: ICW assay; for ICW Avg: average of runs 1 and 2; for ICW 1: run 1; for ICW 2: run 2; for ICW assay: Table 10
T1 construct: host or cells: A431
T1 sequence (P00533 25-1210): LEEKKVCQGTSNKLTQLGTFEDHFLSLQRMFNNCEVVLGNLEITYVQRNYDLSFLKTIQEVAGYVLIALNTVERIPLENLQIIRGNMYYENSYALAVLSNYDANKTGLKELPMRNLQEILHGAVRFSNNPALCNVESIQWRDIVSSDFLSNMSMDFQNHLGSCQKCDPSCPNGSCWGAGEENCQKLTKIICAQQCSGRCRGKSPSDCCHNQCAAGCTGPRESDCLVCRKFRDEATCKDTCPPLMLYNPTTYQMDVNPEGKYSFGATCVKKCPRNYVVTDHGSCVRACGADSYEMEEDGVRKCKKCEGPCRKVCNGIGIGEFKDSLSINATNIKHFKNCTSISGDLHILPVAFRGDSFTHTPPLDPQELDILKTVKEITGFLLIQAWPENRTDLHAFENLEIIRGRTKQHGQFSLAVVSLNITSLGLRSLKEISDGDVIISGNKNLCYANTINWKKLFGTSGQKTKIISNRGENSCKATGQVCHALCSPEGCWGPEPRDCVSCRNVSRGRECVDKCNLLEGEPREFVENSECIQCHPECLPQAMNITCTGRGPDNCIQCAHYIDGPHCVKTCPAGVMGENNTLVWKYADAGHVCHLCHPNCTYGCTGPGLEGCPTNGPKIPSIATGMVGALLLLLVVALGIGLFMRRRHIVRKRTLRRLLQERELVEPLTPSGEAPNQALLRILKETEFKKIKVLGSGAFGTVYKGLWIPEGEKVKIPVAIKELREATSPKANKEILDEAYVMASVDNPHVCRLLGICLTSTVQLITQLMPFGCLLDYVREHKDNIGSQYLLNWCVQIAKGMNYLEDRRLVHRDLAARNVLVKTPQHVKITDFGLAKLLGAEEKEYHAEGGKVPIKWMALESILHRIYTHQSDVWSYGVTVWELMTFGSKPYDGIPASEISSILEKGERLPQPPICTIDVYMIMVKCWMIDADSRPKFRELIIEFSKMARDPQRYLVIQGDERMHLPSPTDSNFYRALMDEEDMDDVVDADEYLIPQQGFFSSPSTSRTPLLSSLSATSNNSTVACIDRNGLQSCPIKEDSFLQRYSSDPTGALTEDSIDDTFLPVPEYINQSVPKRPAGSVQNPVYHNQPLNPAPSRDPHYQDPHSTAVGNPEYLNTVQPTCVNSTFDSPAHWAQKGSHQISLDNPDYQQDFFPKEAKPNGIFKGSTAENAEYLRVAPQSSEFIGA
Method in brief: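 In-cell Western read-out: fixed A431 cells were co-stained for total EGFR and phospho-EGFR (Tyr1173; some runs Tyr1045). Before fixation, cells were serum-starved for 2 h, exposed to compound for 4 h, then given EGF for 10 min, usually at 10 ng/ml final (6.6 or 12.5 ng/ml in some runs).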

[2] = Homo sapiens, A-431, A431 cells, first value of cell, read-out: MTT Assay IC50(A431/MDBK): A431
[3] = Bos taurus, MDBK, MDBK cells, second value of cell, read-out: MTT Assay IC50(A431/MDBK): MDBK
[4] = Homo sapiens, A-431, first value of 'a/b (c)', taken as A431 cells, read-out: MTT Screen, first value of cell
[5] = Bos taurus, MDBK, second value of 'a/b (c)', taken as MDBK cells, read-out: MTT Screen, second value of cell
[6] = Homo sapiens, A-431, 72 h, Table 10, first of x/y(ratio): A431, three day treatment, unit not printed (doses in μM), read-out: MTT assay (first value)
[7] = Bos taurus, MDBK, 72 h, Table 10, second of x/y(ratio): MDBK, three day treatment, unit not printed (doses in μM), read-out: MTT assay (second value)
[8] = % Inhibition of EGF dependent EGFR phosphorylation in A431 cells, compound 125 μM in assay
[9] = A431 cells, first value of cell, read-out: MTT Assay IC50(A431/MDBK): A431
[10] = Table 10, first of x/y(ratio): A431, three day treatment, unit not printed (doses in μM), read-out: MTT assay (first value)
[11] = Table 10, second of x/y(ratio): MDBK, three day treatment, unit not printed (doses in μM), read-out: MTT assay (second value)
[12] = second value of 'a/b (c)', taken as MDBK cells, read-out: MTT Screen, second value of cell
[13] = first value of 'a/b (c)', taken as A431 cells, read-out: MTT Screen, first value of cell
[14] = MDBK cells, second value of cell, read-out: MTT Assay IC50(A431/MDBK): MDBK

SMILES | IC50 [1, 2] | MTT Assay IC50(A431/MDBK): ratio in parentheses [1] | IC50 (MDBK line; [3]) | ICW Avg (EGFR) | ICW 1 (EGFR) | ICW 2 (EGFR) | also measured
CCCc1cc(=O)[nH]c(Nc2nc(C)c3ccc(C)cc3n2)n1 [compound 12674] | 10.7 µM | 0.79 | 8.41 µM | 40.69 | 29.69 | 51.69 | –
Cc1ccc2nc(Nc3nc4c(c(-c5ccccc5)n3)CCCC4)nc(C)c2c1 [compound 12227] | 16.4 µM | 1.04 | 17.1 µM | 27.27 | 31.47 | 23.08 | –
O=C(NC(=S)Nc1ccc(S(=O)(=O)NC2CCCCC2)cc1)C1CC1 [AD4-12171] | – | – | – | – | – | – | IC50 [1, 4]: 38.9 µM; IC50 (MDBK line; [5]): 37.1 µM; ICW Screen (ICW Inhibition) (EGFR): 37.375
CCC(c1ccccc1)S(=O)(=O)c1ccc(NC(=S)NC(=O)C(C)C)cc1 (stereo not drawn) [AD4-12029] | – | – | – | – | – | – | IC50 [1, 4]: 25.3 µM; IC50 (MDBK line; [5]): 51.1 µM; ICW Screen (ICW Inhibition) (EGFR): 30.376
CCCCCc1c(C)nc(Nc2nc(C)c3ccc(C)cc3n2)[nH]c1=O [11730 + TFA] | 14.5 µM | 0.69 | 10.1 µM | 38.91 | 47.15 | 30.67 | –
C=CCc1c(C)nc(Nc2nc(C)c3cccc(OCC)c3n2)[nH]c1=O [compound 12737] | 14.7 µM | 0.43 | 6.33 µM | 42.27 | 38.90 | 45.65 | –
CC(C)CC(=O)NC(=S)Nc1ccc(S(=O)(=O)NC2CCCCC2)cc1 [AD4-12041] | – | – | – | – | – | – | IC50 [1, 4]: 6.61 µM; IC50 (MDBK line; [5]): 14.3 µM; ICW Screen (ICW Inhibition) (EGFR): 43.515
COc1ccc(/C=C/C(=O)NC(=S)Nc2ccc(S(=O)(=O)Nc3cc(OC)nc(OC)n3)cc2)cc1 [AD4-11645] | – | – | – | – | – | – | IC50 [1, 4]: 45.6 µM; IC50 (MDBK line; [5]): 47 µM; ICW Screen (ICW Inhibition) (EGFR): 66.452
COc1ccc(NC(=S)Nc2ccc(S(=O)(=O)Nc3ccc(Cl)c(Cl)c3)cc2)cc1OC [AD4-12246] | – | – | – | – | – | – | IC50 [1, 6]: 8.36 µM; IC50 (MDBK line; [7]): 8.01 µM; ICW assay (EGFR; [8]): 38.3844
CCCCc1c(C)nc(Nc2nc(C)c3ccccc3n2)[nH]c1=O [12603 + TFA] | – | 0.62 | 10.1 µM | 38.61 | 48.06 | 29.15 | IC50 [1, 9]: 16.2 µM
CC1CCc2cc(F)ccc2N1S(=O)(=O)c1ccc(NC(=S)Nc2ccc3c(c2)OCO3)cc1 (stereo not drawn) [AD4-12828] | – | – | – | – | – | – | IC50 [1, 6]: 26.6 µM; IC50 (MDBK line; [7]): 63.4 µM; ICW assay (EGFR; [8]): 32.6456
Cc1ccc2c(C)nc(Nc3nc(-c4ccccc4)cc(=O)[nH]3)nc2c1 [10381 + TFA] | 2.1 µM | 1.43 | 3.01 µM | 82.76 | 87.04 | 78.48 | –
COc1cc(NC(=S)Nc2ccc(S(=O)(=O)Nc3cc(Cl)cc(Cl)c3)cc2)cc(OC)c1 [AD4-12482] | – | – | – | – | – | – | IC50 [1, 6]: 6.54 µM; IC50 (MDBK line; [7]): 6.05 µM; ICW assay (EGFR; [8]): 28.3382
COc1ccc(NC(=S)Nc2ccc(S(=O)(=O)Nc3ccc(Cl)c(Cl)c3)cc2)cc1OC [AD4-11432] | – | – | – | – | – | – | IC50 [1, 10]: 7.8 µM; IC50 (MDBK line; [11]): 7.82 µM; ICW assay (EGFR; [8]): 47.0006
CCCc1c[nH]c(Nc2nc(-c3ccccc3)c3cc(Cl)ccc3n2)nc1=O [12660 + TFA] | 41.5 µM | 0.99 | 41.1 µM | 61.63 | 49.87 | 73.40 | –
Cc1cc(C(F)(F)F)nc(Nc2nc(C)c3ccccc3n2)n1 [compound 11457] | 27.4 µM | 1.79 | 49 µM | 28.58 | 38.67 | 18.48 | –
COc1ccc2nc(Nc3nc(C)c(Cc4cccc(Cl)c4)c(=O)[nH]3)nc(C)c2c1 [11742 + TFA] | 16.1 µM | – | – | 35.74 | 33.84 | 37.63 | MTT Assay IC50(A431/MDBK): MDBK (MDBK line; MDBK cells, second value of cell): non-convergent
CC(C)C(=O)NC(=S)Nc1ccc(S(=O)(=O)NC2CCCCC2)cc1 [AD4-11985] | – | – | – | – | – | – | IC50 [1, 4]: 62.5 µM; IC50 (MDBK line; [5]): 39.9 µM; ICW Screen (ICW Inhibition) (EGFR): 40.346

SMILES | IC50 [1, 2] | MTT Assay IC50(A431/MDBK): ratio in parentheses [1] | IC50 (MDBK line; [3]) | ICW Avg (EGFR) | ICW 1 (EGFR) | ICW 2 (EGFR) | also measured
CC(=O)c1cccc(NC(=S)Nc2ccc(NS(=O)(=O)c3ccc(C)cc3)cc2)c1 [AD4-10693] | – | – | – | – | – | – | IC50 [1, 6]: 48.2 µM; IC50 (MDBK line; [7]): 35.9 µM; ICW assay (EGFR; [8]): 26.8206
Cc1cccc(Cc2c(C)nc(Nc3nc(C)c4cccc(C)c4n3)[nH]c2=O)c1 [11754 + TFA] | 5.58 µM | 1.35 | 7.55 µM | 29.97 | 34.09 | 25.85 | –
COc1cccc2c(C)nc(Nc3nc4c(c(=O)[nH]3)CCCC4)nc12 [11484 + TFA] | 11.3 µM | 0.86 | 9.72 µM | 70.65 | 67.84 | 73.46 | –
CCCc1c(C)nc(Nc2nc(C)c3cccc(C)c3n2)[nH]c1=O [12625 + TFA] | 21.2 µM | 0.80 | 17 µM | 34.27 | 30.45 | 38.10 | –
Cc1ccc2c(=O)nc(Nc3nc(C)cc(-c4ccccc4)n3)[nH]c2c1 [compound 11610] | 4.98 µM | – | 17.4 µM | 31.67 | 22.50 | 40.84 | –
CCN(c1ccccc1)S(=O)(=O)c1ccc(NC(=S)Nc2ccccc2)cc1 [AD4-12389] | – | – | – | – | – | – | IC50 [1, 10]: 12.2 µM; IC50 (MDBK line; [11]): 6.07 µM; ICW assay (EGFR; [8]): 72.5659
CCCCc1ccc(NC(=S)Nc2ccc(S(=O)(=O)Nc3ccccc3)cc2)cc1 [AD4-12823] | – | – | – | – | – | – | IC50 [1, 6]: 4.07 µM; IC50 (MDBK line; [7]): 4.06 µM; ICW assay (EGFR; [8]): 30.8167
CCc1cc2c(CN3CCN(Cc4ccccc4)CC3)cc(=O)oc2cc1O [AD4-10186] | – | – | – | – | – | – | IC50 ([1]; Homo sapiens, A-431, Table 11, first of x/y(ratio): A431, unit not printed (doses in μM), read-out: MTT Screen (first value)): 40.1 µM; IC50 (MDBK line; Bos taurus, MDBK, Table 11, second of x/y(ratio): MDBK, unit not printed (doses in μM), read-out: MTT Screen (second value)): 45.7 µM; ICW Screen (EGFR; Table 11, % Inhibition of EGF dependent EGFR phosphorylation in A431 cells, compound 125 μM in assay): 47.518
O=C(Cc1ccccc1)NC(=S)Nc1ccc(S(=O)(=O)Nc2ccccc2)cc1 [AD4-12074] | – | – | – | – | – | – | IC50 [1, 4]: 16.2 µM; IC50 (MDBK line; [12]): 32.3 µM; ICW Screen (ICW Inhibition) (EGFR): 29.545
CCOc1ccc(NS(=O)(=O)c2ccc(NC(=S)Nc3ccccc3)cc2)cc1 [AD4-11344] | – | – | – | – | – | – | IC50 [1, 6]: 15.1 µM; IC50 (MDBK line; [7]): 15.3 µM; ICW assay (EGFR; [8]): 34.1727
Cc1ccccc1OCC(=O)NC(=S)Nc1ccc(S(=O)(=O)NC2CCCCC2)cc1 [AD4-12073] | – | – | – | – | – | – | IC50 [1, 4]: 19.5 µM; IC50 [1, 13]: 11.6 µM; IC50 (MDBK line; [5]): 32.3 µM; IC50 (MDBK line; [12]): 17 µM; ICW Screen (ICW Inhibition) (EGFR): 29.313
COc1cccc2c(C)nc(Nc3nc(C)c(C)c(=O)[nH]3)nc12 [12723 + TFA] | – | 1.07 | – | 66.62 | 67.34 | 65.91 | IC50 [1, 9]: 9.33 µM; IC50 (MDBK line; [14]): 9.99 µM
O=C(NC(=S)Nc1ccc(S(=O)(=O)N2CCCCC2)cc1)C1CCC1 [AD4-12064] | – | – | – | – | – | – | IC50 [1, 13]: 47.8 µM; IC50 (MDBK line; [12]): 42.7 µM; ICW Screen (ICW Inhibition) (EGFR): 34.778
Cc1nc(Nc2nc(=O)cc(-c3ccccc3)[nH]2)nc2c(C)cccc12 [compound 11624] | 14 µM | 1.59 | 22.4 µM | 26.08 | 22.54 | 29.61 | –
CCCc1c[nH]c(Nc2nc(C)c3ccccc3n2)nc1=O [compound 12622] | 20.8 µM | 0.55 | 11.5 µM | 26.32 | 21.30 | 31.34 | –
CC1CCc2cc(F)ccc2N1S(=O)(=O)c1ccc(NC(=S)Nc2ccc(Br)cc2Cl)cc1 (stereo not drawn) [AD4-12832] | – | – | – | – | – | – | IC50 [1, 6]: 7.71 µM; IC50 (MDBK line; [7]): 16.3 µM; ICW assay (EGFR; [8]): 29.02
Cc1cc(C)nc(Nc2nc(-c3ccccc3)c3ccc(Cl)cc3n2)n1 [compound 12636] | – | 2.18 | – | 49.02 | 49.55 | 48.49 | IC50 [1, 9]: 15.9 µM; IC50 (MDBK line; [14]): 34.6 µM
CC1CCc2cc(F)ccc2N1S(=O)(=O)c1ccc(NC(=S)Nc2cccc(Cl)c2Cl)cc1 (stereo not drawn) [AD4-12853] | – | – | – | – | – | – | IC50 [1, 6]: 8.76 µM; IC50 (MDBK line; [7]): 7.51 µM; ICW assay (EGFR; [8]): 36.92

Source: patent US20140179681A1, “METHODS AND COMPOSITIONS OF TARGETED DRUG DEVELOPMENT” (priority 2010, published 2014)
